Assay results published in ChEMBL document CHEMBL1126487, “Induction of reversible protein-linked DNA breaks in human osteogenic sarcoma cells by novel cytocidal colchicine derivatives which inhibit DNA topoisomerase II in vitro: Absence of cross-resistance in a colchicine-resistant sub-clone” (Bioorg Med Chem Lett, 1993).

Experiments:
[1] = Toxicity against human Osteogenic sarcoma (Hos)cells; conditions: read-out: LD50 (the source's name)
[2] = system: HOS; assay: Effective concentration required to inhibit growth of sub clone Hos colR cells; assay type: functional, cell-based; conditions: Homo sapiens

Row | SMILES | CC50 [1] [µM] | EC50 [2] [µM]
1 | O=C(N[C@H]1CCc2cc(O)c(O)c(O)c2-c2ccc(=O)c(O)cc21)c1cc(O)c(O)c(O)c1 | 18 | 28
2 | O=C(N[C@H]1CCc2cc(O)c(O)c(O)c2-c2ccc(=O)c(O)cc21)C(F)(F)F | 14 | 26
